Assay in all cases: NCI tumour cell line growth inhibition, 48 h
Assay [1] has as its system DU-145 prostate.
Assay [2] concerns CCRF-CEM leukemia.
In assay [3] the test system is A498 renal.
Assay [4] deals with SNB-19 CNS.
For assay [5], the system named is T-47D breast.
Assay [6] relates to SNB-78 CNS.
In assay [7] the test system is DMS 114 small cell lung.
The test system of assay [8] is DMS 273 small cell lung.
The subject of assay [9] is LXFL 529 NSCLC.
Assay [10] relates to DLD-1 colon.
Assay [11] relates to HOP-18 NSCLC.
Assay [12] has as its system XF 498 CNS.
Assay [13] deals with KM20L2 colon.
For assay [14], the system named is P388/ADR leukemia.
Assay [15] deals with SN12K1 renal.
Assay [16] has as its system P388 leukemia.
The test system of assay [17] is 786-0 renal.

Molecules are shown by their SMILES.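 The compound was tested at five concentrations on cells cultured in 96-well plates, with a 48-hour exposure period. GI50 is the concentration that inhibits growth by half. TGI is the concentration that stops growth completely.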

On to `Oc1ccc(-c2nc3ccc(Cl)cc3s2)cc1`, for which the TGI worked out at 31.1 µM in assay [1], 24.4 µM in assay [2], 35.2 µM in assay [3] and 40.4 µM in [4].
Turning to `NC(=S)N/N=C\c1nccc2ccccc12`, the TGI in assay [1] was above 100 µM; in assay [5], above 100 µM; in [3], 2.39 µM; in [4] it was above 100 µM.
In the case of `CC1=C(C)Cc2c(O)ccc(O)c2C1`, the TGI is 39.7 µM in assay [1]; 63.4 µM in [5]; 16.2 µM in assay [2]; above 100 µM in [3]; above 100 µM in assay [4].
On to `COc1ccc(-c2cc3[nH]nc(N)c3c(=O)o2)cc1`, for which the TGI in assay [6], in [7], in [8], in assay [9], in [10] and in assay [2] was above 100 µM in each case. Moreover, the TGI in [11], in assay [12], in assay [3], in assay [4] and in [13] was above 100 µM in each case.
Consider `CC(=O)C1CC[C@@H]2[C@H](CC[C@]3(C)[C@@H](O)CC[C@@H]23)[C@H]1C(=O)O` (stereo not given in full), for which the TGI in assay [2], in assay [3] and in [4] was above 100 µM in each case.
Take `N/C(=N\N=C\c1ccc2c(c1)OCCO2)NO`: the TGI was above 100 µM in [6]; above 77.6 µM in assay [7]; 57.6 µM in assay [8]; 40.5 µM in assay [14]; above 100 µM in assay [10]; above 57.7 µM in assay [15]. Further, the TGI is above 100 µM in [2]; above 100 µM in assay [11]; 47.3 µM in [16]; above 30.6 µM in assay [12]; above 100 µM in assay [3]; above 32.6 µM in [4]. The molecule further had a TGI in assay [13] above 52 µM.
In the case of `O=C1C(Cl)=C(Nc2ccc(S(=O)(=O)Nc3ccccn3)cc2)C(=O)c2ccccc21`, the TGI in assay [1] is 25.9 µM; in [5] it was 39.7 µM; in [2], above 25.5 µM; in [17] it was 26.1 µM; in assay [3] it was 45.1 µM; in [4], 38.7 µM.
With `CC1(C)OCC=CCO1`, the TGI in [1], in assay [5], in [2] and in assay [4] was above 100 µM each time.
Turning to `COc1cc(C(O)(CC#N)c2cc3c(cc2Br)OCO3)cc(OC)c1OC` (stereo not given), the TGI was above 100 µM in assay [1], above 100 µM in [5], above 100 µM in [2] and 76.1 µM in [4].
As to `COc1cc2c(cc1OCCCC(=O)Nc1ccc3ccc4cccc5ccc1c3c45)N=C[C@@H]1CCCN1C2=O`, the GI50 in assay [1] was below 0.01 µM; in assay [2], 0.0335 µM; in assay [3] it was below 0.0243 µM. Moreover, the values for the TGI in assay [1], in assay [2] and in assay [3] were below 0.01 µM, 0.936 µM and below 0.0509 µM, respectively.
